From BindingDB's records for patent US11225492 (Hangzhou Innogate Pharma Co., Ltd., 2022)
pIC50: −log10 of the molar value.

What follows are molecules tested against Cyclin-dependent kinase 6 (Homo sapiens, UniProt Q00534) (assay: Kinase Assay).
Description: CDK2/CycA2 and CDK6/cycD3 were assayed under buffer conditions in the presence of 50 mM HEPES (pH 7.5), 10 mM MgCl2, 0.0015% Brij-35, and 2 mM dithiothreitol, CDK4/CycD3 with buffer condition of 20 mM HEPES (pH 7.5), 10 mM MgCl2, 0.01% Triton X-100, and 2 mM dithiothreitol. Prepare compounds to 50× of the final desired highest inhibitor concentration by 100% DMSO and serial dilution in 3-fold for total of 10 concentrations. […] After assay for 60 min, 180 min, 60 min respectively at 28° C., reactions were terminated with stop solution (50 mM EDTA, 0.015% Brij-35, 0.2% Coating Reagent #3 and 100 mM HEPES (pH 7.5)). Collect conversion on Caliper EZ Reader.

Sequence of Cyclin-dependent kinase 6 (Q00534 whole entry): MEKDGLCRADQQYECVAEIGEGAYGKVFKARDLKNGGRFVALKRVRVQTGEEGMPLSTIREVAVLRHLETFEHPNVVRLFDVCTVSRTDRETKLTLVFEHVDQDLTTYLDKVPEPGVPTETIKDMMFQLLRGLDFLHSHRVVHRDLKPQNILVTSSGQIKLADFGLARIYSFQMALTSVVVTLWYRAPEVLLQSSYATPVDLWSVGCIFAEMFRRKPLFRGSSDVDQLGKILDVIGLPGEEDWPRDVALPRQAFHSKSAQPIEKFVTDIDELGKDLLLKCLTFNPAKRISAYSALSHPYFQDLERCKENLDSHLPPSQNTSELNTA

pIC50 | Structure (SMILES)
> 7.60 | CC(=O)c1c(C)c2cnc(Nc3ccc4c(c3)OCC3CNCCN43)nc2n(C2CCCC2)c1=O (racemic) [US11225492, Compound 7]
> 7.60 | CC(=O)c1c(C)c2cnc(Nc3ccc4c(c3)OC[C@H]3CNCCN43)nc2n(C2CCCC2)c1=O [US11225492, Compound 7R]
> 7.60 | CC(=O)c1c(C)c2cnc(Nc3ccc4c(c3)OC[C@@H]3CNCCN43)nc2n(C2CCCC2)c1=O [US11225492, Compound 7S]
